Legend:
BTK = biological target: T1, BTK (Homo sapiens, UniProt Q06187); test: BTK degradation in TMD-8 cells (HTRF assay); type: cell-based; conditions: 6 h treatment, IC50 (DC50) of BTK degradation
T1 construct: High control=Cell group with added DMSO and without compound, indicating microplate readings without BTK degradation; endogenous in cells; host or cells: TMD-8
Summary of the method: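 TMD-8 cells were exposed for 6 h to 8 compound doses (6-fold serial dilution, 0.2% DMSO). Lysed cells were incubated overnight at room temperature with HTRF antibodies and read at 665/620 nm. DC50 came from four-parameter fitting of % inhibition versus concentration.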

HEK-293 cells = test: HEK-293 cytotoxicity detection (CellTiter-Glo); type: cell-based; conditions: Homo sapiens; HEK-293 cells, 72 h incubation, CellTiter-Glo luminescence, IC50 of cell proliferation inhibition; read-out: HEK293
Summary of the method: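 HEK-293 cells exposed 72 h to an 8-point, 4-fold dilution series (top 500× stock 5 mM in DMSO; 0.2% DMSO final). Viability by CellTiter-Glo luminescence after 10 min at room temperature; IC50 from four-parameter Hill fit of percent inhibition.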

T1 sequence (Q06187 whole entry): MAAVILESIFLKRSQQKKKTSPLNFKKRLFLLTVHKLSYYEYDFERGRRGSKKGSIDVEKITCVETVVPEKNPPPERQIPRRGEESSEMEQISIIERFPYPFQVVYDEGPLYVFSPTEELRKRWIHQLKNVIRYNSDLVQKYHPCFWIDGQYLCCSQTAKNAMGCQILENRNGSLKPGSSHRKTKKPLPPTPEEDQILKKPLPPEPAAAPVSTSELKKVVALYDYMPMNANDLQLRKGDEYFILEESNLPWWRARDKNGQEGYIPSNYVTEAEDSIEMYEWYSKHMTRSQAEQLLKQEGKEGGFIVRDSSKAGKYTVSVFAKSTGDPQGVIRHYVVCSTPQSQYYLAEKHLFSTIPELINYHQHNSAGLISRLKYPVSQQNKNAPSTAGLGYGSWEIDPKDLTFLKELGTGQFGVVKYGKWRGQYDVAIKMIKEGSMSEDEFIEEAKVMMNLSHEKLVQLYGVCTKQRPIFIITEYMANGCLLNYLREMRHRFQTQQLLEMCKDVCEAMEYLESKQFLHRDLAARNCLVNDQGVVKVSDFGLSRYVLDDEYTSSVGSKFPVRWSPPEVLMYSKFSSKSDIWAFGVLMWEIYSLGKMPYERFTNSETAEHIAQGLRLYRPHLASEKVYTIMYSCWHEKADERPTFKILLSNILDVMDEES

## Cc1cc(-c2ncnc3[nH]c4cc(N5CCC6(CC5)CCN([C@H]5C[C@H](c7ccc([C@H]8CCC(=O)NC8=O)cc7)C5)CC6)ccc4c23)ccc1[C@@H](C)NC(=O)c1nc(C(C)(C)C)no1 [Example 112, 3-(tert-butyl)-N—((R)-1-(4-(7-(9-((1R,3r)-3-(4-((R)-2,6-dioxopiperidin-3-yl)phenyl)cyclobutyl)-3,9-diazaspiro[5.5]undecan-3-yl)-9H-pyrimido[4,5-b]indol-4-yl)-2-methylphenyl)ethyl)-1,2,4-oxadiazole-5-carboxamide]
BTK
  DC50: 2.47 nM
HEK-293 cells
  IC50: 1890 nM

Reference: patent publication US20240366770A1, “DEGRADATION OF BRUTON'S TYROSINE KINASE (BTK) BY CONJUGATION OF BTK INHIBITORS WITH E3 LIGASE LIGAND AND METHODS OF USE” (BeiGene Switzerland GmbH, priority 2021, published 2024)
